Assay [1] relates to trypomastigotes. As to the kind of experiment: Ongoing infection model in human smooth muscle cells infected with trypomastigotes. The assay is classed as cell-based, Trypanosoma cruzi. As to conditions: compound incubated 16 hours, counted 5 days after initial infection, untreated 1.85 × 10^7. Here is the method:
(§1) Human saphenous vein smooth muscle (HSVSM) cells are isolated from outgrowths of explants of unused portions of veins harvested for coronary artery bypass surgery as described previously by Warner et al., J. Exp. Med., 165, 1316-1331 (1987). The cells are maintained in DME medium containing 5.5 mM glucose, 25 mM HEPES and 10% FBS (Hy-Clone Laboratories,Logan, Utah). Trypanosoma cruzi Strain Y trypomastigotes are propagated as described previously by Libby et al., J. Clin. Invest., 77, 127-135 (1986), except that HSVSM cells are used in place of bovine aortic smooth muscle cells.
The effects of the compounds of the present invention have also been tested in an ongoing infection model. […] The cells are then incubated for 48 hours after which time the test compounds are added to the cultures and incubated for 16 hours. After 16 hours, the treated culture media is replaced with drug-free fresh media and cell culture is continued for a further 24 hours. Levels of parasitemia in the treated and untreated cultures are then examined.
*Number of trypomastigotes/ml counted swimming above the HSVM cell
monolayer 5 days after initial infection.

For assay [2], the system named is Trypanosoma cruzi Strain Y trypomastigotes. Kind of assay: Trypanocidal assay: trypomastigotes pre-incubated with test compound, then added to HSVSM cell culture. The assay is classed as cell-based. The settings on record: for percent of cells infected relative to untreated control at 0.5 µM / percent of cells infected relative to untreated control at 1 µM / percent of cells infected relative to untreated control at 5 µM / percent of cells infected relative to untreated control at 10 µM: Trypanosoma cruzi, read-out: percentage of cells infected by pre-treated trypomastigotes relative to untreated controls. As to the method: as §1
Test compounds are dissolved in 0.3 ml DMSO and brought to volume by dilution with serum-free DME medium. Solutions are sterilized by filtration through 0.22 μm filter units. Trypomastigotes (10^7 ml^-1) are harvested and washed twice in serum-free DME medium. Parasites are added to solutions of the test compounds to a final concentration of 10^6 ml^-1 and incubated for 3 hours at 37° C. in a 5% CO2 atmosphere. After incubation with the test compound, 0.1 ml of the parasite suspension (10^5 organisms) is diluted with 0.4 ml cell culture medium and added to a culture of HSVSM cells. After 16 hours, the HSVSM cells are washed to remove non-internalized trypomastigotes and resupplied with fresh culture medium. Infections are followed for 4-7 days by light microscopy.
Trypomastigotes were pre-incubated with a test compound or a prior art compound as described above. Results are expressed as the percentage of cells infected by pre-treated trypomastigotes relative to untreated controls.

The target in assay [3] is trypanothione reductase (Crithidia fasciculata, UniProt P39040). Kind of assay: Incubation of trypanothione reductase with compound under aerobic and anaerobic conditions, dialysis, then T(S)2 reductase assay. The assay is classed as biochemical, C. fasciculata. As to conditions: 0.277778 h, pH 7.8, read-out: loss of T(S)2 reductase activity relative to the aerobic control. As to the method:
(§2) Trypanothione disulfide reductase activity is assayed spectrophotometrically by monitoring substrate-dependent oxidation of NADPH at 340 nm. Alternatively, enzyme activity is monitored by coupling radical formation to cytochrome C reduction and measuring absorbance changes (ε550 =21 mM^-1). Absorbance changes are monitored on a spectrophotometer with a thermostated cuvette chamber. Enzyme concentration is measured spectrophotometrically using the extinction coefficient (ε464 =11.3 mM^-1, Shames et al., Biochemistry, 25, 3519-3526 (1986). Kinetic runs are carried out at 27° C. in 0.1M 4-(2-hydroxyethyl)1-piperazineethane sulfonic acid (HEPES) buffer, pH 7.8, containing 0.1 mM EDTA and 0.25 mM NADPH. Anaerobic measurements are performed in rubber stoppered cuvettes that have been flushed repeatedly with helium. All buffers and solutions used in the assays are treated in this manner. Additions to the cuvette are made with a microsyringe piercing the septum.
Assays are carried out in 0.1M HEPES, pH 7.8, containing 1 mM EDTA, 0.15 mM […], 500 pmoles/ml trypanothione reductase and 10 μM nitrofuran VIII. Reactions are started by addition of enzyme (80 μl to a 2 ml assay). Sequential spectra (200-800 nm) are collected at 20 sec intervals using a UV/Vis spectrophotometer. At the end of the experiment, the assay mixtures are dialyzed and trypanothione reductase is assayed using 250 μM T(S)2. […]

Assay [4] concerns the target trypanothione reductase from C. fasciculata (Crithidia fasciculata, UniProt P39040). Kind of assay: Enzymatic reduction of compounds as substrates of trypanothione reductase (NADPH oxidation, cytochrome C coupled assay). The assay is classed as biochemical. The settings on record: aerobic. As to the method:
FIG. 2 is a graph of the results of the enzymatic reduction of compounds C, D and E of the present invention and comparative prior art compounds as a function of substrate concentration. Relative rates were measured under aerobic conditions by coupling superoxide production to cytochrome C reduction as described.
as §2, with “septum. […]” for “septum.”

[5] abbreviates: 0.5 μM, 3 hours pre-incubation at 37° C., HSVSM cells.
The mark [6] stands for this setting: 1 μM, 3 hours pre-incubation at 37° C., HSVSM cells.
The mark [7] stands for this setting: 5 μM, 3 hours pre-incubation at 37° C., HSVSM cells.
[8] abbreviates: 10 μM, 3 hours pre-incubation at 37° C., HSVSM cells.

Where a name gives a salt, the structure may show the parent alone. Read-outs that look alike come from different tables or passages of the source.

Chain of trypanothione reductase from C. fasciculata (P39040 whole entry): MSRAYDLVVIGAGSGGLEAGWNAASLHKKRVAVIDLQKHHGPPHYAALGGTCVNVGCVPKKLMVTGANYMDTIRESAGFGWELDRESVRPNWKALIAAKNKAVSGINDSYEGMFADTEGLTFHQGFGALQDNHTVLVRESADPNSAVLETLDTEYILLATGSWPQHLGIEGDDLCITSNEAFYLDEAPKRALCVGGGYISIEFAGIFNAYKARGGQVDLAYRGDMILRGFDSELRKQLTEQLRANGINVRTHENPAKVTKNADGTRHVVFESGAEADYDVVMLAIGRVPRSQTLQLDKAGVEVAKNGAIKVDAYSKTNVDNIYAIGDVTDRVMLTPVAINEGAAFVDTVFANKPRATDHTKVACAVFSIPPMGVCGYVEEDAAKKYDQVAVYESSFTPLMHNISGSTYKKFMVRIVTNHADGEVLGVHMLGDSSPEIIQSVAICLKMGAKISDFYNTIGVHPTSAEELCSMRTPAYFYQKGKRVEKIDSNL
Chain of trypanothione reductase (P39040 whole entry): as above

Take “2-(5-Nitro-2-furanylmethylidene)-N-[3-(4-methylpiperidin-1-yl)propyl]hydrazinecarboximidamide trihydrobromide [Compound D]”: the “Trypomastigotes/ml counted swimming above the HSVM cell monolayer” value is 1.80 × 10^7 Trypomastigotes/ml in assay [1] (1 μM) and < 2.00 × 10^4 Trypomastigotes/ml in assay [1] (10 μM). Also, the “percentage of cells infected by pre-treated trypomastigotes relative to untreated controls” value in assay [2] (setting [5]) came to 64%; in assay [2] (setting [6]), 35%; in assay [2] (setting [7]) it was 0%; in assay [2] (setting [8]), 0%.

Consider `CC(CCC1=C(CCC(C)=NNC(=N)N)C(=O)c2ccccc2C1=O)=NNC(=N)N.Cl.Cl` [Compound A, 2,3-Bis(3-(2-amidinohydrazono)butyl)-1,4-naphthoquinone dihydrochloride], for which the “Trypomastigotes/ml counted swimming above the HSVM cell monolayer” value in assay [1] (1 μM) was 4.10 × 10^7 Trypomastigotes/ml; in assay [1] (10 μM), 1.35 × 10^7 Trypomastigotes/ml. For the same molecule, the percent of cells infected relative to untreated control at 0.5 µM in assay [2] (setting [5]) worked out at 14%. In assay [2] (setting [6]), the percent of cells infected relative to untreated control at 1 µM stood at 0%. In assay [2] (setting [7]), the percent of cells infected relative to untreated control at 5 µM is 0%. The percent of cells infected relative to untreated control at 10 µM in assay [2] (setting [8]) is 0%.

For the molecule `CC(CCC1=C(C)C(=O)c2ccccc2C1=O)=NNC(=N)N` [Compound B, hydrochloride], in assay [2] (setting [5]), the percent of cells infected relative to untreated control at 0.5 µM amounted to 100%. Besides, in assay [2] (setting [6]), the percent of cells infected relative to untreated control at 1 µM is 100%. The percent of cells infected relative to untreated control at 5 µM in assay [2] (setting [7]) was found to be 21%. Further, the percent of cells infected relative to untreated control at 10 µM in assay [2] (setting [8]) was found to be 8%.

`N=C(NCCCN1CCN(CCCNC(=N)NN=Cc2ccc([N+](=O)[O-])o2)CC1)NN=Cc1ccc([N+](=O)[O-])o1` [Compound E, 2,2'-Bis(5-nitro-2-furanylmethylidene)-N,N'-[1,4-piperazinediylbis(3,1-propanediyl)]-bishydrazinecarboximidamide tetrahydrobromide]: in assay [3], the inhibition at 10 µM was 93%. For the same molecule, the “Trypomastigotes/ml counted swimming above the HSVM cell monolayer” value in assay [1] (1 μM) is 1.85 × 10^7 Trypomastigotes/ml. Besides, the “Trypomastigotes/ml counted swimming above the HSVM cell monolayer” value in assay [1] (10 μM) is 2.85 × 10^7 Trypomastigotes/ml. In assay [2] (3 h), the percent of cells infected relative to untreated control at 0.5 µM was found to be 100%, the percent of cells infected relative to untreated control at 1 µM was determined as 0%, the percent of cells infected relative to untreated control at 5 µM was 0% and the percent of cells infected relative to untreated control at 10 µM came out at 0%.

As for `N=C(N)NN=Cc1ccc([N+](=O)[O-])o1` [Guanofuracin, reference compound], in assay [2] (3 h), the percent of cells infected relative to untreated control at 0.5 µM came out at 100%, the percent of cells infected relative to untreated control at 1 µM was found to be 45%, the percent of cells infected relative to untreated control at 5 µM came to 0% and the percent of cells infected relative to untreated control at 10 µM is 0%.

As to `CC1CS(=O)(=O)CCN1/N=C/c1ccc([N+](=O)[O-])o1` (stereo not drawn) [Nifurtimox, reference compound], the “trypanothione reductase-catalyzed reduction monitored by NADPH oxidation” value in assay [4] is reported as “could be detected”. In addition, in assay [2] (3 h), the percent of cells infected relative to untreated control at 0.5 µM stood at 100%, the percent of cells infected relative to untreated control at 1 µM came to 100%, the percent of cells infected relative to untreated control at 5 µM turned out to be 10% and the percent of cells infected relative to untreated control at 10 µM amounted to 4%.

For the molecule `NC(=O)N/N=C/c1ccc([N+](=O)[O-])o1` [nitrofurazone], in assay [4], the “trypanothione reductase-catalyzed reduction monitored by NADPH oxidation” value is “could be detected”.

These data come from patent US4942170A, “2-(substituted methylidene)-N-[3-[piperidin-1-yl]propyl]hydrazine carboximidamides useful as antiparasitics” (The Rockefeller University, priority 1988, dated 1990).
